These results are taken from patent publication US7122321B2, “High throughput method for functionally classifying proteins identified using a genomics approach” (Johnson & Johnson Pharmaceutical Research & Development, …, priority 1997, dated 2006).

For orientation: Kd means the equilibrium constant for the complex coming apart.

Experiment [1] concerns Bovine muscle myosin. The experiment is described as follows: microplate thermal shift assay of ATP binding, myosin. How it is done: (§1) Bovine muscle myosin (Sigma), bovine heart 3′–5′ cAMP-dependent protein kinase (Sigma), and chicken muscle pyruvate kinase (Sigma) were each dissolved in Buffer A to generate stock solutions at a final concentration of 2 mg/mL. […] 10 μL of mineral oil was then added to each of the four wells to prevent evaporation. Each data point shown was collected by heating the plate at the temperatures shown for three minutes. For example, the plate was heated to a given temperature, and then allowed to cool to 25 ° C. for one minute, followed by UV illumination and collection of the data. Then the plate was heated to the next higher temperature, and so forth. UV illumination was performed using a long wavelength illumination at […]–420 nm, having a peak at 365 nm. Fluorescence was imaged using a CCD camera having a bandpass filter centered at 550 nm.

Experiment [2] concerns the target T1, chicken muscle pyruvate kinase (Gallus gallus, UniProt P00548).
T1 construct: chicken muscle pyruvate kinase (Sigma); purchased Sigma; host or cells: chicken muscle
Kind of experiment: microplate thermal shift assay of ATP binding, pyruvate kinase. The settings on record: 10 mM, standard deviation in parentheses. As to the method: as §1

Experiment [3] has as its target T2, bovine heart 3′–5′ cAMP-dependent protein kinase (Bos taurus, UniProt P00517).
T2 construct: bovine heart 3′–5′ cAMP-dependent protein kinase (Sigma); purchased Sigma; host or cells: bovine heart
Kind of experiment: microplate thermal shift assay of ATP binding, cAMP-dependent protein kinase.

Experiment [4] has as its target T3, D(II) FGFR1 (Homo sapiens, UniProt P11362).
T3 construct: domain II of the fibroblast growth factor receptor 1 (D(II)FGFR1); hexa-histidine (N); made in house; host or cells: E. coli (renatured from inclusion bodies)
T3 sequence (P11362 158-246 limits assumed): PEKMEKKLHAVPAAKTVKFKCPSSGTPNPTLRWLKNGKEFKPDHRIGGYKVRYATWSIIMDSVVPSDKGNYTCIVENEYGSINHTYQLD
The experiment is described as follows: functional probe library screen (microplate thermal shift assay) against D(II) FGFR1. It is filed as binding. As to conditions: functional probe library Plate 1; for effect on thermal stability of D(II) FGFR1: 50 μM D(II) FGFR1. An excerpt: The compounds in functional probe library Plate 1 was also employed to generate an activity spectrum for D(II) FGFR1. D(II) FGFR1 was cloned and expressed in E. coli. Recombinant D(II) FGFR1 was renatured from inclusion bodies essentially as described (Wetmore, D. R. et al., Proc. Soc. Mtg., San Diego, Calif. (1994)), except that a hexa-histidine tag was included at the N-terminus to facilitate recovery by affinity chromatography on a Ni^2+ chelate column (Janknecht, R. et al., Natl. Acad Sci. USA 88:8972–8976 (1991)). D(II) FGFR1 was further purified on a heparin-sepharose column (Kan, M. et al., Science 259:1918–1921 (1993); Pantoliano, M. W. et al., Biochemistry 33:10229–10248 (1994)). Purity was >95%, as judged by SDS-PAGE. The D(II) FGFR1 protein was concentrated to 12 mg/mL (˜1 mM) and stored at 4° C.
Reactions were prepared in 96-well polycarbonate microtitre plate v-bottom wells. The final concentration of D(II) FGFR1 was 50 μM in […], pH 8 in each well of a 96-well polycarbonate microtitre plate.
The fluorescence emission was measured at 460 nm.

Experiment [5] relates to pigeon liver arylamine acetyltransferase. Kind of experiment: microplate thermal shift assay, arylamine acetyltransferase. It is filed as binding. The settings on record: Arylamine Acetyl transferase.
The target of experiment [6] is T4, porcine liver formimino glutamic acid transferase (Sus scrofa, UniProt P53603).
T4 construct: porcine liver formimino glutamic acid transferase (FGT, Sigma); purchased Sigma; host or cells: porcine liver
T4 sequence (P53603 1-541): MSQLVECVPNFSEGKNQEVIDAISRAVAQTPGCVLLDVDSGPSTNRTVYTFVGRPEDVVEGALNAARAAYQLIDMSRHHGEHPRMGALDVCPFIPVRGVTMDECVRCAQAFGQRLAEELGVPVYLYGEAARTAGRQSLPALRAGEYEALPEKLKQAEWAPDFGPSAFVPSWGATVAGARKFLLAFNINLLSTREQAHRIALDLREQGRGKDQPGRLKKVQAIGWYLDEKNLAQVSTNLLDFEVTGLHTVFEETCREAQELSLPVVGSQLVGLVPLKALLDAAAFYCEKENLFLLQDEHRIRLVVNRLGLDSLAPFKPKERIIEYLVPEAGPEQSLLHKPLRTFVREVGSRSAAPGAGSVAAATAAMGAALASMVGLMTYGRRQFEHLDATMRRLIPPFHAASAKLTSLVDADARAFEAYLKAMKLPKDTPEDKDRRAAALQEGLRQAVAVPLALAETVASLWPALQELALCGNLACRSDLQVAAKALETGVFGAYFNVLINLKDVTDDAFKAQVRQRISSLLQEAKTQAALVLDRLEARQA
Kind of experiment: microplate thermal shift assay, formimino glutamic acid transferase. It is filed as binding. The settings on record: Formimino L-Glutamic acid Transferase. How it is done: Folic acid binding can be assayed using the microplate thermal shift assay. Bovine liver dihydrofolate reductase (DHFR, Sigma), chicken liver dihydrofolate reductase (DHFR, Sigma), pigeon liver arylamine acetyltransferase (ArAcT, Sigma), and porcine liver formimino glutamic acid transferase (FGT, Sigma) were each dissolved in Buffer A (50 mM HEPES, pH 7.5, 100 mM NaCl) to generate stock solutions at a final concentration of 2 mg/mL. Solutions of dihydrofolic acid (FAH2), methotrexate, nicotinamide adenine dinucleotide phosphate (NADP), were prepared by dissolving solid material into Buffer A immediately prior to use. Dapoxyl™ 12800 solution was prepared by diluting a stock of 20 mM Dapoxyl™, 12800 in dimethyl sulfoxide to the appropriate concentration in Buffer A.
For the thermal shift assay, four 10 μL aliquots of each assay mixture were dispensed into four wells located in different quadrants of an MJ Research 384-well thermocycler plate. 10 μL of mineral oil was then added to each of the four wells to prevent evaporation. Each data point shown was collected by heating the plate at the temperature shown for three minutes, followed by incubation at 25° C. for one minute, followed by UV illumination and collection of the data.

Experiment [7] has as its target T5, chicken liver dihydrofolate reductase (Gallus gallus, UniProt P00378).
T5 construct: chicken liver dihydrofolate reductase (DHFR, Sigma); purchased Sigma; host or cells: chicken liver
T5 sequence (P00378 1-189): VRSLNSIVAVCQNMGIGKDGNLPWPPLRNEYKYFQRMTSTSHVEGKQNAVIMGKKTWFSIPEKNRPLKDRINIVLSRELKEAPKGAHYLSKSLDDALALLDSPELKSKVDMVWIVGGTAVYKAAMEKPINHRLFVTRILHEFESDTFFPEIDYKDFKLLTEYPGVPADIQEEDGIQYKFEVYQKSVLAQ
The experiment is described as follows: microplate thermal shift assay, chicken DHFR. In kind it is binding. As to conditions: for ΔTm of ligand complexed with DHFR: DHFR (chicken), single ligand 10 mM.

Experiment [8] concerns the target T6, Bovine liver dihydrofolate reductase (Bos taurus, UniProt P00376).
T6 sequence (P00376 1-187): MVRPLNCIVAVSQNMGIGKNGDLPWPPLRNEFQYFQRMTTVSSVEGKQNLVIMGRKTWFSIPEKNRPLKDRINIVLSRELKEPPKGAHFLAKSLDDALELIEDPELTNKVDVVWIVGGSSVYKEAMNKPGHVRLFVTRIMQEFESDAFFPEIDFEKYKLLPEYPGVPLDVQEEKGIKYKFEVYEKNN
The experiment is described as follows: microplate thermal shift assay, bovine DHFR. As to conditions: FIG. 12. Set-up: Kd; Kd; Tm of the thermal unfolding curve; control 47.2° C; control 50.8° C; ΔTm. In kind it is binding.

Experiment [9] deals with T6, Bovine liver dihydrofolate reductase. Kind of experiment: microplate thermal shift assay, bovine DHFR. Further details: Bovine liver dihydrofolate reductase (DHFR, Sigma); purchased Sigma; host or cells: bovine liver. It is filed as binding. As to conditions: for ΔTm of ligand complexed with DHFR: DHFR (cow), single ligand 10 mM.
Experiment [10] has as its target human α-thrombin (human) (UniProt P00734). Kind of experiment: microplate thermal shift assay, 1 µM thrombin + 50 µM hirudin peptide alone.
Experiment [11] shares this target. The experiment is described as follows: microplate thermal shift assay, Kd at Tm, hirudin peptide binding thrombin in the presence of 50 µM 3DP-4660.
Experiment [12] has the same target. The experiment is described as follows: microplate thermal shift assay, Kd at Tm, hirudin peptide binding thrombin in the presence of 200 µM heparin 5000.
Experiment [13] has the same target. Kind of experiment: microplate thermal shift assay, Kd at 298 K estimated, hirudin peptide binding thrombin in the presence of 50 µM 3DP-4660.
The target is the same in experiment [14]. Kind of experiment: microplate thermal shift assay, Kd at 298 K estimated, hirudin peptide binding thrombin in the presence of 200 µM heparin 5000.
The target is the same in experiment [15]. The experiment is described as follows: microplate thermal shift assay, 50 µM hirudin peptide added to thrombin in the presence of 50 µM 3DP-4660 (shift against TH/3dp-4660).
Experiment [16] shares this target. Kind of experiment: microplate thermal shift assay, 50 µM hirudin peptide added to thrombin in the presence of 200 µM heparin 5000 (shift against TH/Heparin 5000).
[17] abbreviates: Myosin, 10 mM, standard deviation in parentheses.

T1 sequence (P00548 whole entry): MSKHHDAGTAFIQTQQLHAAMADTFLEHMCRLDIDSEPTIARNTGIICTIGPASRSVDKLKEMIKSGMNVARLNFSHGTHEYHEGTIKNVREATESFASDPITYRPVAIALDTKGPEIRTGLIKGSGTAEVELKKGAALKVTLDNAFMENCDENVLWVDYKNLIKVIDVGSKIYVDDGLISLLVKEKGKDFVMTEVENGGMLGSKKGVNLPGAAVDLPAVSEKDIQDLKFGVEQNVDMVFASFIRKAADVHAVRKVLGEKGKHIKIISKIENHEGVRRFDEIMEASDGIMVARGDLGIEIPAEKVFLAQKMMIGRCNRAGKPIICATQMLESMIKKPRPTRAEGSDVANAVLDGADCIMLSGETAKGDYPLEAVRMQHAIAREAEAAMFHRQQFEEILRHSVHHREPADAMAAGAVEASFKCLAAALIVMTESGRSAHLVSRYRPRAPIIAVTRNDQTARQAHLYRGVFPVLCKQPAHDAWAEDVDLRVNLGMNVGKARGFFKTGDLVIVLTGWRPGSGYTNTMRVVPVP

Take `Nc1ncnc2c1ncn2[C@@H]1O[C@H](COP(=O)(O)OP(=O)(O)OP(=O)(O)O)[C@@H](O)[C@H]1O` [ATP, adenosine triphosphate]: the “Tm of the thermal unfolding curve” value in experiment [1] ((+)ATP, FIG. 9, control 49.3° C.) came to 51.4 °C. The Kd in experiment [1] (FIG. 9) was determined as 440 µM. The ΔTm was 2.1 °C in [1] (FIG. 9) and 2.2 (±0.4) ° C in [1] (setting [17]). Also, the ΔTm at 10000 µM in experiment [2] is -0.44 °C.
Consider `Nc1ncnc2c1ncn2[C@@H]1O[C@H](COP(=O)(O)OP(=O)(O)OP(O)(O)=S)[C@@H](O)[C@H]1O` [ATP-γ-S, adenosinetriphosphate-γ-S], for which the ΔTm is 0.0 (±0.2) ° C in experiment [1] (setting [17]); 5.6 (±1.7) ° C in [3] (3′–5′ cAMP Protein kinase, 10 mM, standard deviation in parentheses); 5.6 °C in experiment [3] (FIG. 10); 0.8 (±0.11) ° C in experiment [2]. For the same molecule, the “Tm of the thermal unfolding curve” value in experiment [3] ((+) ATP-γ-S, FIG. 10, control 46.2° C.) was 51.8 °C. Besides, in experiment [3] (FIG. 10), the Kd worked out at 200 µM.
`O=C[C@H](O)[C@@H](O)[C@H](O)[C@H](O)CO` [D(+)-glucose]: the “effect on thermal stability of D(II) FGFR1” value (“effect on thermal stability” below) in [4] is given as “stabilize”.
The same measure, in the same setting: next, `OC[C@H]1O[C@@](CO)(O[C@H]2O[C@H](CO)[C@@H](O)[C@H](O)[C@H]2O)[C@@H](O)[C@@H]1O` [D(+)-sucrose]: “stabilize”.
Regarding `Nc1nc2c(c(=O)[nH]1)N=C(CNc1ccc(C(=O)N[C@@H](CCC(=O)O)C(=O)O)cc1)CN2` [FAH2, dihydrofolic acid], in [5] (100 μM), the ΔTm is listed as −1.8 (±0.5). Further, the ΔTm at 100 µM in experiment [6] was 3.62 °C.
For `CN(Cc1cnc2nc(N)nc(N)c2n1)c1ccc(C(=O)N[C@@H](CCC(=O)O)C(=O)O)cc1` [Methotrexate, methotrexate], in that order: 1.0 (±0.4) and 0.9 °C.
Regarding `NC(=O)C1=CN([C@@H]2O[C@H](COP(=O)(O)OP(=O)(O)OC[C@H]3O[C@@H](n4cnc5c(N)ncnc54)[C@H](OP(=O)(O)O)[C@@H]3O)[C@@H](O)[C@H]2O)C=CC1` [NADPH, nicotinamide adenine dinucleotide phosphate-reduced form], the “ΔTm of ligand complexed with DHFR” value in experiment [7] is recorded as 11.9 degrees; in experiment [9] it was 9.7 degrees. For the same molecule, the “Tm of the thermal unfolding curve” value in experiment [8] ((+) NADPH 10 mM, control 50.8° C.) came out at 53.8 °C. Moreover, the Kd in [8] was determined as 700 nM. Besides, in experiment [8] (NADPH 10 mM), the ΔTm amounted to 3 °C.
In the case of `OC[C@@H](O)[C@@H](O)[C@H](O)[C@@H](O)CO` [sorbitol], the “effect on thermal stability” value in experiment [4] is given as “stabilize”.
For the molecule `O=P(O)(O)OP(=O)(O)OP(=O)(O)O` [tri-polyphosphate], the “thermal shift of D(II) FGFR1” value in [4] (largest shift) was “about 11 °C”.
As for `OC[C@@H](O)[C@H](O)[C@@H](O)CO` [xylitol], the “effect on thermal stability” value in experiment [4] was “stabilize”.
On to “Hirugen (hirudin 53-64) (Sigma) (from UniProt P09945 60-71) (peptide)”, for which the ΔTm in experiment [10] worked out at 5.8 ° K; in [15], 4.6 ° K; in experiment [16] it was 2.6 ° K. In addition, the Kd in experiment [11] was 731 nM; in [12] it was 4.25 µM; in [13], 54 nM; in experiment [14], 478 nM.
With “nicotinamide adenine dinucleotide phosphate [NADP]”, the “ΔTm of ligand complexed with DHFR” value is 7.5 degrees in experiment [7] and 6.3 degrees in [9]. In addition, the ΔTm is listed as 3.8 (±0.4) in experiment [7] (DHFR (second row, reference Tm 56.6), 5 mM); 2.8 (±0.4) in experiment [5] (5 mM); 0.0 (±0.2) in experiment [6] (5 mM); 3.2 (±0.13) in experiment [9] (DHFR (first row, reference Tm 52.47), 5 mM).
